The source of these data is patent US20220289732A1, “HETEROCYCLIC WDR5 INHIBITORS AS ANTI-CANCER COMPOUNDS” (NOVARTIS AG, priority 2019, published 2022).

The subject of test [1] is MV4-11 cells. The test can be described thus: MV4-11 6-day cell growth CTG (CellTiter-Glo) assay. It is filed as cell-based. Particulars: Homo sapiens, MV4-11, 144 h, 6 days, read-out: (c) MLL/WDR5 cell proliferation assay//MLL/WDR5 proliferation MV4:11 Qualified AC50. On the procedure:
MV4-11 6-Day Cell Growth CTG (CellTiter-Glo) Assay
Acute myeloid leukemia cell MV4-11 (ATCC® CRL-9591™) was cultured with RPMI 1640 medium (Thermo Fisher Scientific, cat #11875) supplemented with 10% FBS (Thermo Fisher Scientific, cat #10099141) in humidified incubator at 37° C., 5% CO2. To assess the effect of WDR5 inhibitor on cell growth, the compound of the present invention was dissolved in DMSO and serially diluted at 1:3 for 12 points starting from 10 mM then 200 nL for the replicate of each dose per well was dispensed to Viewplate-384 Black (Perkin Elmer). Exponentially growing MV4-11 cells were seeded at the density of 300 cells per well in 40 μL to the plate, so the final compound working concentration starts from 50 μM. After 6 days, 40 μL CellTiter-Glo (Promega, cat #G7573) was added into the cell culture well and luminescence was read with Envision (Perkin Elmer) to determine the viable cells. The percentage inhibition was calculated against the samples treated with DMSO only and the data were used for dose response curve fitting in GraphPad Prism to get the IC50 of representative compound of present invention, which reflects the inhibition of WDR5 activity in the proliferation of MV4;11.
Background: Cellular ATP, detected with luciferase, serves as a proxy for viable cell number.

In test [2] the target is WDR5 (Homo sapiens, UniProt P61964). The test can be described thus: WDR5 HTRF binding assay. Particulars: read-out: (a) WDR5 HTRF Pep Val v.1[Inhibitor/IC50]Qualified AC50. On the procedure: The compounds were serially diluted 3-fold in DMSO to obtain a total of twelve concentrations. Then the test compounds at each concentration (90 nL of each) were transferred by Mosquito in the white Proxiplate plus 384-well microplate (Perkin Elmer). The assay mixture (typical 9 μL) containing 6 nM WDR5 and 20 nM Biotin-MLL1 WIN peptide (3762-3773) in the assay buffer (25 mM Hepes, pH7.5, 0.05% Tween 20, 2 mM DTT, 100 mM NaCl, 0.1% BSA) were added to the wells. For counter assay, a 9 μL solution of 15 nM Biotin-PEG-His peptide was added into the wells. After 20 min incubation at rt, a 3 μL detection solution containing 14 μg/ml Phycolink Streptavidin Allophycocyanin (Prozyme), 2 nM Anti-His-Eu (PerkinElmer) in assay buffer was then added. After 1 hr incubation, the plate was read in the EnVision reader (PerkinElmer) using the HTRF protocol (The protocol set-up: Lance/Delfia dual enhancer mirror, excitation at 320 UV2 (TRF), emission at APC665, 2nd emission at EuropiμM 615). HTRF signals were normalized based on the reading coming from the positive (maximum signal control) and negative controls (minimum signal control) to give percentage of activities left. The data were then fit to a dose response equation using the program Helios (Novartis) to get the IC50 values. Helios is a Novartis in-house assay data analysis software using the methods described by Normolle, D. P., Statistics in Medicine, 12:2025-2042 (1993); Formenko, I. et al., Computer Methods and programs in Biomedicine, 82, 31-37 (2006); Sebaugh, J. L., Pharmaceutical Statistics, 10:128-134 (2011); Kelly, C. et al., Biometrics, 46(4):1071-1085 (1990); and Kahm, M, et al., Journal of Statistical Software, 33(7):(2010) (grofit: Fitting Biological Growth Curves with R, pages 1-21, available at http://www.jstatsoft.org/).

For test [3], the target named is wild type MLL1 four-member complex (MLL1-4C) (Homo sapiens, UniProt P61964). The test can be described thus: MLL1 LC-MS assay (SAH production). The test is classed as biochemical. Conditions: read-out: (b) MLL LCMS Peptide Val.v.1 Qualified AC50. On the procedure: The compounds of the present disclosure were serially and separately diluted 3-fold in DMSO to obtain a total of eight or twelve concentrations. Then the test compounds at each concentration (120 nL of each) were transferred by Mosquito into white Proxiplate plus 384-well microplate (PerkinElmer). Solutions (6 μL) of 60 nM wild type MLL1 four-member complex (MLL1-4C) and 5 μM SAM in the reaction buffer (20 mM Tris-HCl, pH8.0, 0.01% Tween 20, 1 mM DTT, 10 mM MgCl2, 0.01% BSA) were added to the wells that were then incubated with the test compound for 20 min. A 6 μL solution of 20 μM of the peptide substrate H3K4me0 (histone H3[1-21]-Biotin) in the reaction buffer was added to initiate each reaction. The final components in the reaction solution include 30 nM MLL1-4C, 2.5 μM SAM, and 10 μM H3K4me0 with varying concentration of the compounds. A positive control consisted of 30 nM MLL1-4C, 2.5 μM SAM, and 10 μM substrate in the absence of the test compound, and a negative control consisted of 2.5 μM SAM, and 10 μM substrate only. Each reaction was incubated at rt for 120 min, then stopped by addition of 3 μL per of quench solution (2.5% TFA with 320 nM d4-SAH). The reaction mixture was centrifuged (Eppendorf centrifuge 5810, Rotor A-4-62) for 2 min at 2000 rmp. The SAH production from the enzymatic assays were monitored by LC-MS/MS on an API 4000 triple quadrupole mass spec with Turbolon Spray (Applied Biosystem) coupled with Prominenece UFLC (Shimazu). The level of SAH production were then normalized based on the values coming from the positive and negative controls to give percent enzyme activities. The data were then fit to a dose response equation using the program Helios (Novartis) to get the IC50 values of the test compound. Helios is a Novartis in-house assay data analysis software using the methods described by Normolle, D. P., Statistics in Medicine, 12:2025-2042 (1993); Formenko, I. et al., Computer Methods and programs in Biomedicine, 82, 31-37 (2006); Sebaugh, J. L., Pharmaceutical Statistics, 10:128-134 (2011); Kelly, C. et al., Biometrics, 46(4):1071-1085 (1990); and Kahm, M, et al., Journal of Statistical Software, 33(7):(2010) (grofit: Fitting Biological Growth Curves with R, pages 1-21, available at http://www.jstatsoft.org/).

In the case of `CCOc1cc([C@H](C)N2CCc3c(cc(Cn4ccnc4C)cc3-c3nn(C)c(=O)cc3C(F)(F)F)C2=O)ncc1C#N` [Example 291], the AC50 in test [1] and in test [3] was 10 to 1000 nM throughout. In test [2], the IC50 fell in the range of 10 to 1000 nM.

`CNc1nccn1Cc1cc(CN(C)C)c2c(c1)C(=O)N([C@@H](C)c1cc(OC)c(C#N)cn1)CC2` [Example 45, (S)-6-(1-(5-((dimethylamino)methyl)-7-((2-(methylamino)-1H-imidazol-1-yl)methyl)-1-oxo-3,4-dihydroisoquinolin-2(1H)-yl)ethyl)-4-methoxynicotinonitrile]: the AC50 in test [1] and in test [3] was 10 to 1000 nM in each case. Moreover, the IC50 in test [2] was 10 to 1000 nM.

As for `CCOc1cc([C@H](C)N2CCc3c(Cl)cc(Cn4ccnc4NC)cc3C2=O)cnc1C#N` [Example 4, (S)-5-(1-(5-chloro-7-((2-(methylamino)-1H-imidazol-1-yl)methyl)-1-oxo-3,4-dihydroisoquinolin-2(1H)-yl)ethyl)-3-ethoxypicolinonitrile], the AC50 in test [1] and in test [3] was 10 to 1000 nM each time. For the same molecule, the IC50 in test [2] fell in the range of 10 to 1000 nM.

As to `CCOc1cc([C@H](C)N2CCc3c(cc(Cn4cc(C)nc4C)cc3-c3cn(C)c(=O)cc3C)C2=O)ncc1C#N` [Example 274], the AC50 in test [1] and in test [3] was 10 to 1000 nM throughout. In addition, the IC50 in test [2] was less than 10 nM.

Consider `CCOc1cc([C@H](C)N2CCc3c(cc(CCN(C)CC)cc3-c3cc(C(C)(C)O)ncc3C)C2=O)ncc1C#N` [Example 184, (S)-4-ethoxy-6-(1-(7-(2-(ethyl(methyl)amino)ethyl)-5-(2-(2-hydroxypropan-2-yl)-5-methylpyridin-4-yl)-1-oxo-3,4-dihydroisoquinolin-2(1H)-yl)ethyl)nicotinonitrile], for which the AC50 in test [1] and in test [3] was 10 to 1000 nM each time. Moreover, in test [2], the IC50 was less than 10 nM.

With `CCOc1cc(CN2CCc3c(cc(CCN(C)CC)cc3-c3cc(C)nnc3C)C2=O)ncc1C` [Example 212, 5-(3,6-dimethylpyridazin-4-yl)-2-((4-ethoxy-5-methylpyridin-2-yl)methyl)-7-(2-(ethyl(methyl)amino)ethyl)-3,4-dihydroisoquinolin-1(2H)-one], the AC50 in test [1] and in test [3] was 10 to 1000 nM throughout. Moreover, the IC50 in test [2] is less than 10 nM.

In the case of `CCOc1cc(C(C)N2CCc3c(cc(CCN(C)CCF)cc3-c3cc(C)ncc3C)C2=O)ncc1C#N` (stereo not drawn) [Example 248], the AC50 in test [1] and in test [3] was 10 to 1000 nM throughout. The IC50 in test [2] lay within 10 to 1000 nM.

For `CCOc1cc([C@H](C)N2CCc3c(CN(C)C)cc(Cn4ccnc4NC)cc3C2=O)ncc1Cl` [Example 20, (S)-2-(1-(5-chloro-4-ethoxypyridin-2-yl)ethyl)-5-((dimethylamino)methyl)-7-((2-(methylamino)-1H-imidazol-1-yl)methyl)-3,4-dihydroisoquinolin-1(2H)-one], the AC50 in test [1] and in test [3] was 10 to 1000 nM throughout. For the same molecule, the IC50 in test [2] was 10 to 1000 nM.

Turning to `CNc1nccn1Cc1cc(-c2cc(CO)cnc2Cl)c2ccn(Cc3cccc(OC)c3)c(=O)c2c1` [Example 100, 5-(2-chloro-5-(hydroxymethyl)pyridin-3-yl)-2-(3-methoxybenzyl)-7-((2-(methylamino)-1H-imidazol-1-yl)methyl)isoquinolin-1(2H)-one], the AC50 in test [1] and in test [3] was 10 to 1000 nM each time. In addition, the IC50 in test [2] lay in the range of 10 to 1000 nM.

Turning to `CNc1nccn1Cc1cc2c(c(C3CC3)c1)CCN([C@@H](C)c1cnc(F)c(OC)c1)C2=O` (single isomer, unassigned) [Example 78], the AC50 in test [1] and in test [3] was 10 to 1000 nM throughout. In test [2], the IC50 is less than 10 nM.

Consider `CNc1nccn1Cc1cc2c(c(C3CC3)c1)CCN([C@@H](C)c1cc(OC)c(F)cn1)C2=O` [Example 85, (S)-5-cyclopropyl-2-(1-(5-fluoro-4-methoxypyridin-2-yl)ethyl)-7-((2-(methylamino)-1H-imidazol-1-yl)methyl)-3,4-dihydroisoquinolin-1(2H)-one], for which the AC50 in test [1] and in test [3] was 10 to 1000 nM in each case. Besides, the IC50 in test [2] is 10 to 1000 nM.

As for `CCOc1cc([C@H](C)N2CCc3c(cc(CCN(C)CCF)cc3-c3cn(C)c(=O)cc3Cl)C2=O)ncc1C#N` [Example 251], the AC50 in test [1] and in test [3] was 10 to 1000 nM in each case. For the same molecule, the IC50 in test [2] is 10 to 1000 nM.

With `CCOc1cc([C@H](C)N2CCc3c(cc(CCN4C[C@@H](O)[C@H]4C)cc3-c3cn(C)nc3C(F)F)C2=O)ncc1C#N` [Example 213, 6-((S)-1-(5-(3-(difluoromethyl)-1-methyl-1H-pyrazol-4-yl)-7-(2-((2R,3R)-3-hydroxy-2-methylazetidin-1-yl)ethyl)-1-oxo-3,4-dihydroisoquinolin-2(1H)-yl)ethyl)-4-ethoxynicotinonitrile], the AC50 in test [1] and in test [3] was 10 to 1000 nM in each case. Besides, the IC50 in test [2] was less than 10 nM.

`CCOc1cc([C@H](C)N2CCc3c(cc(Cn4ccnc4C)cc3-c3ccnn3C)C2=O)ncc1C#N` [Example 279]: the AC50 in test [1] and in test [3] was 10 to 1000 nM throughout. Besides, the IC50 in test [2] is less than 10 nM.

With `CCOc1cc([C@H](C)N2CCc3c(cc(CCN(C)CC)cc3-c3cc(N)ncc3C(F)(F)F)C2=O)ncc1C#N` [Example 202, (S)-6-(1-(5-(2-amino-5-(trifluoromethyl)pyridin-4-yl)-7-(2-(ethyl(methyl)amino)ethyl)-1-oxo-3,4-dihydroisoquinolin-2(1H)-yl)ethyl)-4-ethoxynicotinonitrile], the AC50 in test [1] and in test [3] was 10 to 1000 nM in each case. In addition, the IC50 in test [2] is 10 to 1000 nM.

For `CCOc1cc(C(C)N2CCc3c(cc(CCN(C)CC)cc3-c3cc(O)cnc3C)C2=O)ncc1C#N` (stereo not drawn) [Example 150, 4-ethoxy-6-(1-(7-(2-(ethyl(methyl)amino)ethyl)-5-(5-hydroxy-2-methylpyridin-3-yl)-1-oxo-3,4-dihydroisoquinolin-2(1H)-yl)ethyl)nicotinonitrile], the AC50 in test [1] and in test [3] was 10 to 1000 nM in each case. In addition, the IC50 in test [2] was in the range of 10 to 1000 nM.
